Results taken from article PMC4684281, “Antitumor Effects and Mechanism of Novel Emodin Rhamnoside Derivatives against Human Cancer Cells In Vitro” (PLoS ONE, 2015).
Values joined by “and” are separate entries in the source; they are usually repeats but may differ in a detail not shown here. Equal entries are not always repeated. Where two headings read alike, the source gives them in different places.

What was measured:
HepG2 cells = experiment: Flow cytometry apoptosis analysis (Annexin V/7-AAD), HepG2; assay type: cell-based, Human; conditions: 48h (Fig 7 legend: 72h); for Early apoptosis: control 6.16±2.20; for Late apoptosis: control 10.71±1.42; for Living cell: control 79.87±1.84
Method: Flow cytometry analysis was determined using Annexin V-APC/7-AAD Apoptosis Detection Kit (BD Parmagen, U.S.A). HepG2 cells were inoculated at a density of 3×10^5/well in 6-well plates, and allowed to attach at 37°C for 24 hours. Afterwards, cells were treated with specific concentration EM-d-Rha, and cultured and harvested as described previously. Cells of each sample were resuspended in […] cold binding buffer before adding 2.5μL Annexin V-APC conjugate and 5μL 7-AAD solution. Then cells were incubated for 15 min on ice in the dark. Cell suspension was diluted to a final volume of 250μL with ice-cold, 1× Annexin V Binding Buffer. The assay was conducted by flow cytometry (BD FACSCalibur,USA). Scatter plots were generated using Cell Quest pro software (BD Biosciences, San Jose, CA). The experiment was repeated three times.

OVCAR-3 cells = experiment: MTT cell viability assay, OVCAR-3; assay type: cell-based, Human; conditions: for IC50: OVCAR-3
Method: (§1) The viability of cancer cells was evaluated by MTT assay. Briefly, cells were inoculated in 96-well culture plates at the density of 1×10^4/well with complete medium containing 10% fetal calf serum in a final volume of 0.2 mL. Cells were incubated at 37°C for at least 24 hours to allow optimal attachment. When the cells reached 60% confluence, they were treated with Cisplatin, HCPT and emodin rhamnopyranosides derivatives in various concentrations, and incubated in a humidity-controlled 5%CO2 incubator at 37°C for 72 hours. Medium were exchanged once every 24 hours. Cell control group and blank group were set up in the same manner, with each group having six parallel wells. Cell survival was assessed by directly adding 22 μL of 5mg/mL MTT to 0.2 mL medium. After three hours, the formazan precipitate was dissolved in 200μL isopropanol per well, and completely mixed under room temperature. Afterwards, the optical density of each well was detected at 570 nm wavelength by iMark microplate reader (Bio-rad,USA). This experiment was repeated at least three times.

HeLa cells = experiment: MTT cell viability assay, HeLa; assay type: cell-based, Human
Method: as §1

K562 cells = experiment: MTT cell viability assay, K562; assay type: cell-based; conditions: Homo sapiens
Method: as §1

[1] = system: HepG2 mitochondrial membrane potential (ΔΨm); experiment: Mitochondrial membrane potential (Rhodamine123, flow cytometry); assay type: cell-based, Human; conditions: HepG2, 5.0μM
Method: HepG2 cells were inoculated in 10cm diameter culture plates at a density of 5×10^5 cells, and allowed to attach at 37°C for 24 hours. Afterwards, cells were treated with 5.0μM EM-d-Rha for 0, 24h, 48h and 72h respectively. Cells were incubated in a humidified incubator supplied with 5% CO2 at 37°C for 72 hours. Medium were exchanged once every 24 hours. The harvested cells of each sample were suspended in 500μL PBS before adding 5 μL Rhodamine123. Then samples were incubated at 37°C in the dark for 15 min. Cells were again collected by centrifugation at 300×g for 5 minutes and the supernatant was discarded. The cell pellets were washed twice with 4°C PBS. Finally cells of all samples were resuspended in 500μL PBS. Before performing assay, adjusting excitation wavelength and emission wavelength to 480nm, 520nm respectively, the ΔΨm changes of HepG2 mitochondrial were measured with a flow cytometer (BD FACSCalibur, BD Biosciences, US). The experiment was repeated at least three times.

[2] = HepG2, 10μM, listed as EM-d-Rha

CC(=O)O[C@@H]1[C@@H](O[C@@H]2O[C@@H](C)[C@H](O)[C@@H](OC(C)=O)[C@H]2OC(C)=O)[C@H](C)O[C@@H](Oc2cc(O)c3c(c2)C(=O)c2cc(C)cc(O)c2C3=O)[C@@H]1OC(C)=O [S-8, 3-(2”,3”-Di-O-acetyl-α-L-rhamnopyranosyl-(1→4)-2’,3’-di-O-acetyl-α-L-rhamnopyranosyl)-emodin]
Early apoptosis (HepG2 cells; HepG2, 2.5μM): 40.40±5.70 %
Late apoptosis (HepG2 cells; HepG2, 2.5μM): 7.50±1.04%
Living cell (HepG2 cells; HepG2, 2.5μM): 51.20±5.10 %
Early apoptosis (HepG2 cells; HepG2, 5μM): 45.20±4.17 %
Late apoptosis (HepG2 cells; HepG2, 5μM): 17.53±3.16%
Living cell (HepG2 cells; HepG2, 5μM): 36.40±3.23 %
Early apoptosis (HepG2 cells; [2]): 78.77% and 78.77±1.22 %
Late apoptosis (HepG2 cells; HepG2, 10μM): 4.22±1.63%
Living cell (HepG2 cells; [2]): 16.53% and 16.53±0.68 %
IC50 (OVCAR-3 cells; Homo sapiens, MTT at 72h, n=3, mean±S.E.M, read-out: IC50 for EM-d-Rha, OVCAR-3): 2.26 ± 0.92 µM
IC50 (OVCAR-3 cells; Homo sapiens, MTT, 72 hours, read-out: IC50 values, OVCAR-3): 0.61 µg/mL
inhibition at 0.1 µM (OVCAR-3 cells; Homo sapiens, OVCAR-3, 0.1μM, MTT 72h, read-out: The inhibition rate of EM-d-Rha): 1.4 ± 0.21%
inhibition at 0.5 µM (OVCAR-3 cells; Homo sapiens, OVCAR-3, 0.5μM, MTT 72h, read-out: The inhibition rate of EM-d-Rha): 2.95 ± 1.12%
inhibition at 2.5 µM (OVCAR-3 cells; Homo sapiens, OVCAR-3, 2.5μM, MTT 72h, read-out: The inhibition rate of EM-d-Rha): 66 ± 1.27%
inhibition at 12.5 µM (OVCAR-3 cells; Homo sapiens, OVCAR-3, 12.5μM, MTT 72h, read-out: The inhibition rate of EM-d-Rha): 83.6 ± 1.15%
inhibition at 62.5 µM (OVCAR-3 cells; Homo sapiens, OVCAR-3, 62.5μM, MTT 72h, read-out: The inhibition rate of EM-d-Rha): 90.64 ± 0.74%
Decrease of IC50 compared to the IC50 of emodin, OVCAR-3 (OVCAR-3 cells; from Table 1): 42.3 fold
IC50 (HeLa cells; Homo sapiens, HeLa, MTT at 72h, n=3, mean±S.E.M, read-out: IC50 for EM-d-Rha, HeLa): 1.51 ± 0.31 µM
IC50 (HeLa cells; Homo sapiens, HeLa, MTT, 72 hours, read-out: IC50 values, HeLa): 1.15 µg/mL
inhibition at 0.1 µM (HeLa cells; Homo sapiens, HeLa, 0.1μM, MTT 72h, read-out: The inhibition rate of EM-d-Rha): 14.8 ± 5.61%
inhibition at 0.5 µM (HeLa cells; Homo sapiens, HeLa, 0.5μM, MTT 72h, read-out: The inhibition rate of EM-d-Rha): 37.6 ± 2.81%
inhibition at 2.5 µM (HeLa cells; Homo sapiens, HeLa, 2.5μM, MTT 72h, read-out: The inhibition rate of EM-d-Rha): 49.2 ± 3.78%
inhibition at 12.5 µM (HeLa cells; Homo sapiens, HeLa, 12.5μM, MTT 72h, read-out: The inhibition rate of EM-d-Rha): 69.1 ± 3.36%
inhibition at 62.5 µM (HeLa cells; Homo sapiens, HeLa, 62.5μM, MTT 72h, read-out: The inhibition rate of EM-d-Rha): 89.74 ± 0.63%
Decrease of IC50 compared to the IC50 of emodin, HeLa (HeLa cells; from Table 1): 10.56 fold
IC50 (K562 cells; K562, MTT at 72h, n=3, mean±S.E.M, read-out: IC50 for EM-d-Rha, K562): 2.8 ± 0.11 µM
inhibition at 0.1 µM (K562 cells; K562, 0.1μM, MTT 72h, read-out: The inhibition rate of EM-d-Rha): 0%
inhibition at 0.5 µM (K562 cells; K562, 0.5μM, MTT 72h, read-out: The inhibition rate of EM-d-Rha): 15.1 ± 1.13%
inhibition at 2.5 µM (K562 cells; K562, 2.5μM, MTT 72h, read-out: The inhibition rate of EM-d-Rha): 45.86 ± 0.11%
inhibition at 12.5 µM (K562 cells; K562, 12.5μM, MTT 72h, read-out: The inhibition rate of EM-d-Rha): 78.74 ± 0.01%
inhibition at 62.5 µM (K562 cells; K562, 62.5μM, MTT 72h, read-out: The inhibition rate of EM-d-Rha): 80.64 ± 0.03%
Percentage of ΔΨm (Vs. control group) ([1]; 24 h): 82.22±5.97 %
Percentage of ΔΨm (Vs. control group) ([1]; 48 h): 53.21±9.71 %
Percentage of ΔΨm (Vs. control group) ([1]; 72 h, listed as EM-d-Rha): 31.77±2.84%
